Measurements reported in patent publication US20230293599A1, “BACTERIAL COMPOSITIONS WITH ANTI-INFLAMMATORY ACTIVITY” (Universiteit Gent, priority 2020, published 2023).
Where two headings read alike, the source gives them in different places. Residues, ends and D or L forms follow the SMILES beside them.

Columns and labels:
R. gilardii = assay: Biolog Phenotype Microarray PM1-2 growth on carbon sources; type: cell-based, Roseomonas gilardii
Procedure: (§1) Using Phenotype Microarray (PM) panels (Biolog), the influence of 190 carbon sources on the growth of the potential probiotic species R. mucilaginosa, R. dentocariosa, R. gilardii, G. haemolysans, and common respiratory pathogens P. aeruginosa, and S. aureus was determined. PM1 and PM2 panels (Biolog) were inoculated according to the manufacturer's instructions. Growth curves were generated for 35 hours by measuring the absorbance at 590 nm using an EnVision (Perkin Elmer) plate reader.

S. aureus = type: cell-based, Staphylococcus aureus
Procedure: as §1

P. aeruginosa = assay: Biolog Phenotype Microarray PM1-2 growth on carbon sources; type: cell-based, Pseudomonas aeruginosa
Procedure: as §1

R. dentocariosa = assay: as above; type: cell-based, Rothia dentocariosa
Procedure: as §1

R. mucilaginosa = assay: as above; type: cell-based, Rothia mucilaginosa; conditions: for AUC of growth curve, R. mucilaginosa: 35 hours, absorbance 590 nm, n = 1, cells without values AUC < 50; for growth of R. mucilaginosa on the carbon source (in words): AUC lower than 50 = not supporting growth
Procedure: as §1

[1] = 35 hours, absorbance 590 nm, n = 1, cells without values AUC < 50
[2] = AUC lower than 50 = not supporting growth

Structure (SMILES) | AUC of growth curve, S. aureus (S. aureus) | AUC of growth curve, P. aeruginosa (P. aeruginosa; [1]) | also measured
O=C(O)CC(O)C(=O)O (racemic) [D,L-Malic Acid] | 696.0 | 852.7 | AUC of growth curve, R. gilardii (R. gilardii; [1]): 169.8
O=P(O)(O)OCC(O)CO (racemic) [D,L-α-Glycerol-Phosphate] |  | 114.5 | growth of S. aureus on the carbon source (in words) (S. aureus): not or only minimally supporting growth; growth of P. aeruginosa on the carbon source (in words) (P. aeruginosa; [2]): not or only minimally supporting growth; AUC of growth curve, R. dentocariosa (R. dentocariosa; [1]): 271.8; growth of R. dentocariosa on the carbon source (in words) (R. dentocariosa; [2]): enable growth; AUC of growth curve, R. mucilaginosa (R. mucilaginosa): 247.7; growth of R. mucilaginosa on the carbon source (in words) (R. mucilaginosa): enable growth
OC[C@H]1O[C@@H](Oc2ccc(O)cc2)[C@H](O)[C@@H](O)[C@@H]1O [Arbutin] | 282.2 |  | AUC of growth curve, R. dentocariosa (R. dentocariosa; [1]): 55.2
O=C(O)CC(Br)C(=O)O (stereo not drawn) [Bromo Succinic Acid] | 430.7 | 102.6 | AUC of growth curve, R. gilardii (R. gilardii; [1]): 67.3; AUC of growth curve, R. dentocariosa (R. dentocariosa; [1]): 808.4
O=C(O)CC(O)(CC(=O)O)C(=O)O [Citric Acid] | 169.0 | 846.5 | AUC of growth curve, R. gilardii (R. gilardii; [1]): 156.2
C[C@@H](O)[C@H](O)[C@H](O)[C@@H](O)C=O [D-Fucose] | 138.3 | 91.3 | AUC of growth curve, R. gilardii (R. gilardii; [1]): 71.4; AUC of growth curve, R. dentocariosa (R. dentocariosa; [1]): 119.9
O=C[C@H](O)[C@@H](O)[C@@H](O)[C@H](O)C(=O)O [D-Galacturonic Acid] | 165.1 | 598.2 | AUC of growth curve, R. dentocariosa (R. dentocariosa; [1]): 57.0
OC[C@H]1O[C@@](CO)(O[C@H]2O[C@H](CO)[C@@H](O)[C@H](O)[C@H]2O)[C@@H](O[C@H]2O[C@H](CO)[C@@H](O)[C@H](O)[C@H]2O)[C@@H]1O [D-Melezitose] | 969.2 |  | AUC of growth curve, R. dentocariosa (R. dentocariosa; [1]): 57.2
OC[C@H]1O[C@H](OCC2O[C@@H](O)[C@H](O)[C@@H](O)[C@@H]2O)[C@H](O)[C@@H](O)[C@H]1O (stereo partly drawn) [D-Melibiose] | 220.2 |  | AUC of growth curve, R. gilardii (R. gilardii; [1]): 86.9; AUC of growth curve, R. dentocariosa (R. dentocariosa; [1]): 249.8
OC[C@@H](O)[C@@H](O)[C@H](O)[C@@H](O)CO [D-Sorbitol] | 412.2 | 129.8 | 
O=C(CO)[C@@H](O)[C@@H](O)[C@H](O)CO [D-Tagatose] | 633.2 |  | AUC of growth curve, R. gilardii (R. gilardii): 75.2; AUC of growth curve, P. aeruginosa (P. aeruginosa): 574.0; AUC of growth curve, R. dentocariosa (R. dentocariosa): 117.7
OC[C@H]1O[C@H](O[C@H]2O[C@H](CO)[C@@H](O)[C@H](O)[C@H]2O)[C@H](O)[C@@H](O)[C@@H]1O [D-Trehalose] | 852.9 |  | growth of P. aeruginosa on the carbon source (in words) (P. aeruginosa; [2]): did not support growth; AUC of growth curve, R. dentocariosa (R. dentocariosa; [1]): 937.7; growth of R. dentocariosa on the carbon source (in words) (R. dentocariosa; [2]): allowed growth; AUC of growth curve, R. mucilaginosa (R. mucilaginosa): 572.3; growth of R. mucilaginosa on the carbon source (in words) (R. mucilaginosa): allowed growth
O=C(O)/C=C/C(=O)O [Fumaric Acid] | 687.9 | 1085.5 | AUC of growth curve, R. dentocariosa (R. dentocariosa; [1]): 202.9
NCC(=O)O [Glycine] | 743.1 | 101.6 | 
NCC(=O)N[C@@H](CC(=O)O)C(=O)O [Glycyl-L-Aspartic Acid] (H-Gly-Asp-OH) | 840.3 |  | AUC of growth curve, P. aeruginosa (P. aeruginosa): 538.0
NCC(=O)N1CCC[C@H]1C(=O)O [Glycyl-L-Proline] (H-Gly-Pro-OH) | 292.4 |  | AUC of growth curve, P. aeruginosa (P. aeruginosa): 387.4; AUC of growth curve, R. dentocariosa (R. dentocariosa): 72.5
OC[C@H]1O[C@@H](n2cnc3c(O)ncnc32)[C@H](O)[C@@H]1O [Inosine] | 1075.0 | 141.0 | 
C[C@H](N)C(=O)O [L-Alanine] | 564.0 | 775.3 | 
N=C(N)NCCC[C@H](N)C(=O)O [L-Arginine] | 816.4 |  | AUC of growth curve, P. aeruginosa (P. aeruginosa): 285.4
NC(=O)C[C@H](N)C(=O)O [L-Asparagine] | 684.0 | 1032.0 | 
N[C@@H](CC(=O)O)C(=O)O [L-Aspartic Acid] | 464.1 | 730.7 | 
O=C1O[C@H]([C@@H](O)CO)[C@@H](O)[C@@H]1O [L-Galactonic Acid γ-Lactone] | 176.4 |  | AUC of growth curve, R. gilardii (R. gilardii): 212.2; AUC of growth curve, P. aeruginosa (P. aeruginosa): 549.8
N[C@@H](CCC(=O)O)C(=O)O [L-Glutamic Acid] |  | 788.3 | AUC of growth curve, S. aureus (S. aureus; [1]): 644.7
NC(=O)CC[C@H](N)C(=O)O [L-Glutamine] | 697.1 | 987.8 | 

Structure (SMILES) | AUC of growth curve, S. aureus (S. aureus) | AUC of growth curve, P. aeruginosa (P. aeruginosa; [1]) | also measured
N[C@@H](Cc1c[nH]cn1)C(=O)O [L-Histidine] | 467.3 | 773.2 | 
N[C@@H](CCO)C(=O)O [L-Homoserine] | 194.1 | 82.5 | 
CC[C@H](C)[C@H](N)C(=O)O [L-Isoleucine] | 113.8 | 86.2 | 
CC(C)C[C@H](N)C(=O)O [L-Leucine] | 231.5 | 125.5 | 
CSCC[C@H](N)C(=O)O [L-Methionine] | 254.7 | 52.6 | 
O=C(O)[C@@H]1CCCN1 [L-Proline] | 567.9 | 425.7 | AUC of growth curve, R. dentocariosa (R. dentocariosa; [1]): 1049.5; AUC of growth curve, R. mucilaginosa (R. mucilaginosa): 268.5
O=C1CC[C@@H](C(=O)O)N1 [L-Pyroglutamic Acid] | 427.9 | 1438.7 | 
O=C(CO)[C@@H](O)[C@H](O)[C@@H](O)CO [L-Sorbose] | 458.7 |  | AUC of growth curve, P. aeruginosa (P. aeruginosa): 94.3; AUC of growth curve, R. dentocariosa (R. dentocariosa): 52.1
O=C(O)CC(=O)O [Malonic Acid] | 470.9 | 234.7 | 
OC[C@H]1O[C@H](O[C@H]2[C@H](O)[C@@H](O)[C@H](O)O[C@@H]2CO)[C@H](O)[C@@H](O)[C@@H]1O [Maltose] | 867.8 |  | growth of P. aeruginosa on the carbon source (in words) (P. aeruginosa; [2]): did not support growth; AUC of growth curve, R. dentocariosa (R. dentocariosa; [1]): 977.1; growth of R. dentocariosa on the carbon source (in words) (R. dentocariosa; [2]): allowed growth; AUC of growth curve, R. mucilaginosa (R. mucilaginosa): 1052.6; growth of R. mucilaginosa on the carbon source (in words) (R. mucilaginosa): allowed growth
O=C(O)[C@@H](O)[C@H](O)[C@H](O)[C@@H](O)C(=O)O [Mucic Acid] | 162.5 |  | AUC of growth curve, R. mucilaginosa (R. mucilaginosa): 53.4
CC(=O)N[C@@H](CCC(=O)O)C(=O)O [N-Acetyl-L-Glutamic Acid] | 184.1 | 272.5 | 
O=C(O)C(=O)C(C(=O)O)C(O)C(=O)O (stereo not drawn) [Oxalomalic Acid] | 691.0 |  | AUC of growth curve, R. gilardii (R. gilardii): 219.2; growth of R. gilardii on the carbon source (in words) (R. gilardii): enabled growth; growth of P. aeruginosa on the carbon source (in words) (P. aeruginosa): did not support growth; AUC of growth curve, R. dentocariosa (R. dentocariosa): 169.4; growth of R. dentocariosa on the carbon source (in words) (R. dentocariosa): enabled growth
OC[C@H]1O[C@H](OC[C@H]2OC(O)(CO)[C@@H](O)[C@@H]2O)[C@H](O)[C@@H](O)[C@@H]1O (stereo partly drawn) [Palatinose] | 763.7 | 514.7 | AUC of growth curve, R. dentocariosa (R. dentocariosa; [1]): 197.4; AUC of growth curve, R. mucilaginosa (R. mucilaginosa): 129.4
CCC(=O)O [Propionic Acid] | 235.6 | 152.1 | AUC of growth curve, R. gilardii (R. gilardii; [1]): 58.6
NCCCCN [Putrescine] | 274.2 | 656.8 | 
OCc1ccccc1O[C@@H]1O[C@H](CO)[C@@H](O)[C@H](O)[C@H]1O [Salicin] | 146.2 |  | growth of P. aeruginosa on the carbon source (in words) (P. aeruginosa; [2]): did not support growth; AUC of growth curve, R. dentocariosa (R. dentocariosa; [1]): 222.9; growth of R. dentocariosa on the carbon source (in words) (R. dentocariosa; [2]): stimulated only the growth; AUC of growth curve, R. mucilaginosa (R. mucilaginosa): 74.0
CCC(C)N (stereo not drawn) [Sec-Butylamine] |  |  | AUC of growth curve, R. mucilaginosa (R. mucilaginosa): 67.6
NC(=O)CCC(=O)O [Succinamic Acid] | 490.3 | 53.6 | 
O=C(O)CCC(=O)O [Succinic Acid] | 626.1 | 348.4 | AUC of growth curve, R. gilardii (R. gilardii; [1]): 125.7; AUC of growth curve, R. dentocariosa (R. dentocariosa; [1]): 241.8
OC[C@H]1O[C@@](CO)(O[C@H]2O[C@H](CO)[C@@H](O)[C@H](O)[C@H]2O)[C@@H](O)[C@@H]1O [Sucrose] |  |  | growth of P. aeruginosa on the carbon source (in words) (P. aeruginosa; [2]): did not support growth; growth of R. dentocariosa on the carbon source (in words) (R. dentocariosa; [2]): allowed growth; growth of R. mucilaginosa on the carbon source (in words) (R. mucilaginosa): allowed growth
O=C(O)CC(CC(=O)O)C(=O)O [Tricarballylic Acid] | 177.0 | 510.7 | 
COC1OC(CO)C(O)C(O)C1O [α-Methyl-D-Galactoside] | 229.9 |  | AUC of growth curve, R. gilardii (R. gilardii; [1]): 73.3
